Test [1] deals with PKS18 (Mycobacterium tuberculosis, UniProt P9WPF1).
The target in test [2] is ORAS (Neurospora crassa, UniProt Q7S6N4). As to the kind of experiment: type III PKS assay, LC-HRMS. In kind it is biochemical. As to conditions: pH 8.0, room temperature, overnight.
In test [3] the target is T1, CsyA (Aspergillus oryzae, UniProt Q53U85).
T1 sequence (Q53U85 1-402): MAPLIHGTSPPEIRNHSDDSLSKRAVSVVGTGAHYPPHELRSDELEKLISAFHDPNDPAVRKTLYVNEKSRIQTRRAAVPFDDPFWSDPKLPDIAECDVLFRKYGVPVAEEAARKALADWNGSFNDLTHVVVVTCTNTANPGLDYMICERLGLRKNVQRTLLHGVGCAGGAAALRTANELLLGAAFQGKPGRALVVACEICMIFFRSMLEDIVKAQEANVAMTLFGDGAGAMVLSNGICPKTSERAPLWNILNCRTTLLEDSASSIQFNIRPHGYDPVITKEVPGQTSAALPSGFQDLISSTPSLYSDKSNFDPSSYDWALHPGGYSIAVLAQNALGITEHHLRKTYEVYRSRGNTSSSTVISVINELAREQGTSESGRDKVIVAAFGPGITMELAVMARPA
The experiment in a line: type III PKS assay, LC-HRMS. It is filed as biochemical. The note with it: malonyl-CoA 2 mM, pH 8.0, room temperature, overnight.

These results are taken from publication PMC4684755 (ACS chemical biology, 2015).

PKS18, sequence (P9WPF1 whole entry): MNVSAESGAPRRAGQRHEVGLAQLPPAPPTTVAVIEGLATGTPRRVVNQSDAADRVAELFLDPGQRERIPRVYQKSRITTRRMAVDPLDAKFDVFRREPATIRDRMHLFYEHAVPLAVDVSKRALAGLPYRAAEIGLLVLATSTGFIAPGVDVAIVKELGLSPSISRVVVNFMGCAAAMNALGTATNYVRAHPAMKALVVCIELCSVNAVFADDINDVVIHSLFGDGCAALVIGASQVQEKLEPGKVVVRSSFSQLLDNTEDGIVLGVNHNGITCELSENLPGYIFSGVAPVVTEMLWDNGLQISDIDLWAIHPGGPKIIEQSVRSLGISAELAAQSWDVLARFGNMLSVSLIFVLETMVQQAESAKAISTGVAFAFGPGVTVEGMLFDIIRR

In the case of `CCCCCCCCCCCC(=O)SCCNC(=O)CCNC(=O)[C@H](O)C(C)(C)COP(=O)(O)OP(=O)(O)OC[C@H]1O[C@@H](n2cnc3c(N)ncnc32)[C@H](O)[C@@H]1OP(=O)(O)O` [lauryl-CoA], the “type III PKS assay, LC-HRMS” value in test [1] is “enzymatic reactions containing lauryl-CoA, malonyl-CoA and the type III PKSs as positive controls”; in test [2] (malonyl-CoA 2 mM), “enzymatic reactions containing lauryl-CoA, malonyl-CoA and the type III PKSs as positive controls”; in test [3], “enzymatic reactions containing lauryl-CoA, malonyl-CoA and the type III PKSs as positive controls”.

Take `CC(C)(COP(=O)(O)OP(=O)(O)OC[C@H]1O[C@@H](n2cnc3c(N)ncnc32)[C@H](O)[C@@H]1OP(=O)(O)O)[C@@H](O)C(=O)NCCC(=O)NCCSC(=O)CC(=O)O` [malonyl-CoA]: the “type III PKS assay, LC-HRMS” value was “enzymatic reactions containing lauryl-CoA, malonyl-CoA and the type III PKSs as positive controls” in test [1]; “enzymatic reactions containing lauryl-CoA, malonyl-CoA and the type III PKSs as positive controls” in test [2] (lauryl-CoA 1 mM).
